# Key:
# Assay in all cases: Test B pre-/postemergence plant response
# Type in all cases: in vivo
# [1] = system: yellow nutsedge (Cyperus esculentus); conditions: for Plant response rating, Nutsedge, Yellow: Postemergence
# Method in brief: (§1)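 Response scores were assigned visually after 13 to 15 days in a greenhouse, comparing treated pots with controls on a 0–100 scale where 100 denotes complete control. Preemergence treatments went onto freshly seeded loam/sand soil; postemergence treatments onto plants 2 to 18 cm tall.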
# [2] = system: large crabgrass (Digitaria sanguinalis); conditions: for Plant response rating, Crabgrass, Large: Postemergence
# Method in brief: as §1
# [3] = system: bermudagrass (Cynodon dactylon); conditions: for Plant response rating, Bermudagrass: Postemergence
# Method in brief: as §1
# [4] = system: kochia (Kochia scoparia); conditions: for Plant response rating, Kochia: Postemergence
# Method in brief: as §1
# [5] = system: velvetleaf (Abutilon theophrasti); conditions: for Plant response rating, Velvetleaf: Postemergence
# Method in brief: as §1
# [6] = system: woolly cupgrass (Eriochloa villosa); conditions: for Plant response rating, Cupgrass, Woolly: Postemergence
# Method in brief: as §1
# [7] = system: johnsongrass (Sorghum halepense); conditions: for Plant response rating, Johnsongrass: Postemergence
# Method in brief: as §1
# [8] = system: ragweed (common ragweed, Ambrosia elatior); conditions: for Plant response rating, Ragweed: Postemergence
# Method in brief: as §1
# [9] = system: lambsquarters (Chenopodium album); conditions: for Plant response rating, Lambsquarters: Postemergence
# Method in brief: as §1
# [10] = system: blackgrass (Alopecurus myosuroides); conditions: for Plant response rating, Blackgrass: Postemergence
# Method in brief: as §1
# [11] = system: Surinam grass (Brachiaria decumbens); conditions: for Plant response rating, Surinam Grass: Postemergence
# Method in brief: as §1
# [12] = system: green foxtail (Setaria viridis); conditions: for Plant response rating, Foxtail, Green: Postemergence
# Method in brief: as §1
# [13] = system: downy bromegrass (Bromus tectorum); conditions: for Plant response rating, Bromegrass, Downy: Postemergence
# Method in brief: as §1
# [14] = system: Italian ryegrass (Lolium multiflorum); conditions: for Plant response rating, Ryegrass, Italian: Postemergence
# Method in brief: as §1
# [15] = system: giant foxtail (Setaria faberii); conditions: for Plant response rating, Foxtail, Giant: Postemergence
# Method in brief: as §1
# [16] = system: goosegrass (Eleusine indica); conditions: for Plant response rating, Goosegrass: Postemergence
# Method in brief: as §1
# [17] = system: corn (Zea mays); conditions: for Plant response rating, Corn: Postemergence
# Method in brief: as §1
# [18] = 62 g ai/ha, postemergence, 0 is no effect, 100 is complete control, 13 to 15 days
# [19] = 31 g ai/ha, 0 to 100 scale (0 no effect, 100 complete control)
# [20] = 125 g ai/ha, scale 0 to 100 (0 no effect, 100 complete control)
# [21] = 250 g ai/ha, scale 0 to 100 (0 no effect, 100 complete control), 13 to 15 days
structure (smiles),measurement,setting,value
CCCn1c(-c2cccc(F)c2)ncc(C(=O)C2=C(O)CCCC2=O)c1=O [Compound 127],"Nutsedge, Yellow plant response rating (0 to 100 scale)",[1]; [18],70
same,"Plant response rating, Nutsedge, Yellow",[1]; [19],65
same,"Plant response rating, Nutsedge, Yellow",[1]; [20],75
same,"Plant response rating, Nutsedge, Yellow",[1]; [21],80
same,"Crabgrass, Large plant response rating (0 to 100 scale)",[2]; [18],85
same,"Plant response rating, Crabgrass, Large",[2]; [19],80
same,"Plant response rating, Crabgrass, Large",[2]; [20],90
same,"Plant response rating, Crabgrass, Large",[2]; [21],95
same,Bermudagrass plant response rating (0 to 100 scale),[3]; [18],95
same,"Plant response rating, Bermudagrass",[3]; [19],95
same,"Plant response rating, Bermudagrass",[3]; [20],98
same,"Plant response rating, Bermudagrass",[3]; [21],98
same,Kochia plant response rating (0 to 100 scale),[4]; [18],98
same,"Plant response rating, Kochia",[4]; [19],45
same,"Plant response rating, Kochia",[4]; [20],100
same,"Plant response rating, Kochia",[4]; [21],100
same,Velvetleaf plant response rating (0 to 100 scale),[5]; [18],95
same,"Plant response rating, Velvetleaf",[5]; [19],90
same,"Plant response rating, Velvetleaf",[5]; [20],100
same,"Plant response rating, Velvetleaf",[5]; [21],100
same,"Cupgrass, Woolly plant response rating (0 to 100 scale)",[6]; [18],75
same,"Plant response rating, Cupgrass, Woolly",[6]; [19],75
same,"Plant response rating, Cupgrass, Woolly",[6]; [20],85
same,"Plant response rating, Cupgrass, Woolly",[6]; [21],85
same,Johnsongrass plant response rating (0 to 100 scale),[7]; [18],70
same,"Plant response rating, Johnsongrass",[7]; [19],65
same,"Plant response rating, Johnsongrass",[7]; [20],80
same,"Plant response rating, Johnsongrass",[7]; [21],95
same,Ragweed plant response rating (0 to 100 scale),[8]; [18],85
same,"Plant response rating, Ragweed",[8]; [19],70
same,"Plant response rating, Ragweed",[8]; [20],98
same,"Plant response rating, Ragweed",[8]; [21],98
same,Lambsquarters plant response rating (0 to 100 scale),[9]; [18],85
same,"Plant response rating, Lambsquarters",[9]; [19],75
same,"Plant response rating, Lambsquarters",[9]; [20],90
same,"Plant response rating, Lambsquarters",[9]; [21],95
same,Blackgrass plant response rating (0 to 100 scale),[10]; [18],20
same,"Plant response rating, Blackgrass",[10]; [19],5
same,"Plant response rating, Blackgrass",[10]; [20],25
same,"Plant response rating, Blackgrass",[10]; [21],40
same,Surinam Grass plant response rating (0 to 100 scale),[11]; [18],75
same,"Plant response rating, Surinam Grass",[11]; [19],75
same,"Plant response rating, Surinam Grass",[11]; [20],85
same,"Plant response rating, Surinam Grass",[11]; [21],90
same,"Foxtail, Green plant response rating (0 to 100 scale)",[12]; [18],85
same,"Plant response rating, Foxtail, Green",[12]; [19],75
same,"Plant response rating, Foxtail, Green",[12]; [20],90
same,"Plant response rating, Foxtail, Green",[12]; [21],95
same,"Bromegrass, Downy plant response rating (0 to 100 scale)",[13]; [18],10
same,"Plant response rating, Bromegrass, Downy",[13]; [19],5
same,"Plant response rating, Bromegrass, Downy",[13]; [20],20
same,"Plant response rating, Bromegrass, Downy",[13]; [21],40
same,"Ryegrass, Italian plant response rating (0 to 100 scale)",[14]; [18],5
same,"Plant response rating, Ryegrass, Italian",[14]; [19],0
same,"Plant response rating, Ryegrass, Italian",[14]; [20],5
same,"Plant response rating, Ryegrass, Italian",[14]; [21],30
same,"Foxtail, Giant plant response rating (0 to 100 scale)",[15]; [18],85
same,"Plant response rating, Foxtail, Giant",[15]; [19],80
same,"Plant response rating, Foxtail, Giant",[15]; [20],85
same,"Plant response rating, Foxtail, Giant",[15]; [21],90
same,Goosegrass plant response rating (0 to 100 scale),[16]; [18],75
same,"Plant response rating, Goosegrass",[16]; [19],65
same,"Plant response rating, Goosegrass",[16]; [20],75
same,"Plant response rating, Goosegrass",[16]; [21],85
same,Corn plant response rating (0 to 100 scale),[17]; [18],25
same,"Plant response rating, Corn",[17]; [19],5
same,"Plant response rating, Corn",[17]; [20],25
same,"Plant response rating, Corn",[17]; [21],75

# Source: patent publication US8952024B2, “Herbicidal pyrimidone derivatives” (E I du Pont de Nemours and Company, priority 2009, dated 2015)
